Activity calls are given as the source filed them.
What was measured:
[1] = decrease of insulin promoter-GFP reporter – imaging, high-content screening, mouse beta cells (AID 1628); assay type: functional; settings: MIN6
[2] = MIN6 cell viability loss – mouse insulinoma, cytotoxicity control, dose response (AID 2122); assay type: functional;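 further: confirmatory high-throughput counterscreen run to flag cytotoxic compounds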
Caspase-3 = target: T1, Caspase-3 (Homo sapiens, UniProt P42574); assay type: functional;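 further: Dose-response selectivity test against caspase-3 for candidate inhibitors of sentrin-specific proteases (SENPs)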
T1 sequence (P42574 whole entry): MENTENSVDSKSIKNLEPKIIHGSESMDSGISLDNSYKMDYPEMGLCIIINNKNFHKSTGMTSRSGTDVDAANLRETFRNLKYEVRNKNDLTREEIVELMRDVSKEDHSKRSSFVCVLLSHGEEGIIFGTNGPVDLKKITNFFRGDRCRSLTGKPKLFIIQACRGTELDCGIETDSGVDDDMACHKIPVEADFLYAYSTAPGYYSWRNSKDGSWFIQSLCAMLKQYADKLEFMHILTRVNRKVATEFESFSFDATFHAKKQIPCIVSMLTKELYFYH

[3] = target: T2, Sentrin-specific protease 7 (Homo sapiens, UniProt Q9BQF6); assay type: functional;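 further: Luminescence-based dose-response confirmation of ultra-high-throughput screening hits, measuring inhibition of SENP7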
T2 sequence (Q9BQF6 whole entry): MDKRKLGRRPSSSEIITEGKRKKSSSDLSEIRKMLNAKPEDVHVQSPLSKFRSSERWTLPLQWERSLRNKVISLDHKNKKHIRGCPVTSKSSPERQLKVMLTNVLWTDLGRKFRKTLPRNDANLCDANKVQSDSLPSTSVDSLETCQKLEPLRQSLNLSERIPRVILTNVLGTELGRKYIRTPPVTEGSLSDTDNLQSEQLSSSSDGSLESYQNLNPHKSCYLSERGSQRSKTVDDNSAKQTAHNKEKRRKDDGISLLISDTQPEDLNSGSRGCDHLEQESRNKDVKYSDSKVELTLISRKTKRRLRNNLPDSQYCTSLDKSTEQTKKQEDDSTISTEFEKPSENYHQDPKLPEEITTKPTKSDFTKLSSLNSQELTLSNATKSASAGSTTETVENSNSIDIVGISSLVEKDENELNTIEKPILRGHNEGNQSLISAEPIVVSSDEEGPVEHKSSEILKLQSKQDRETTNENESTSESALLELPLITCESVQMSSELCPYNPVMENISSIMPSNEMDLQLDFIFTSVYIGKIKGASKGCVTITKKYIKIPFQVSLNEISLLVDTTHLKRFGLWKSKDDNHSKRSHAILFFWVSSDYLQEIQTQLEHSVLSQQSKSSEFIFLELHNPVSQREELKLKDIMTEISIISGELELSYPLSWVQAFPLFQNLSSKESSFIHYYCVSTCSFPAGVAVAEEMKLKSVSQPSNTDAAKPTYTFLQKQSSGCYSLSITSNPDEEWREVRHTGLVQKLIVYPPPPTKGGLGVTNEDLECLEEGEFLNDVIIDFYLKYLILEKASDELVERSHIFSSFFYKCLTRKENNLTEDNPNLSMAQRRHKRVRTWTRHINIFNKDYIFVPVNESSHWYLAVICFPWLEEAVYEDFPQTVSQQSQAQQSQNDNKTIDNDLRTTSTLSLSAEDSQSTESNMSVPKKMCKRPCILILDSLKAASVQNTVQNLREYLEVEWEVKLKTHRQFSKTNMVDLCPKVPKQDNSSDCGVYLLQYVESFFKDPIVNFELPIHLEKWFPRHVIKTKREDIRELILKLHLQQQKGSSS

[4] = target: T3, Sentrin-specific protease 6 (Homo sapiens, UniProt Q9GZR1); assay type: functional;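 further: Luminescence-based dose-response confirmatory assay of SENP6 inhibition, following up an ultra-high-throughput screen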
T3 sequence (Q9GZR1 whole entry): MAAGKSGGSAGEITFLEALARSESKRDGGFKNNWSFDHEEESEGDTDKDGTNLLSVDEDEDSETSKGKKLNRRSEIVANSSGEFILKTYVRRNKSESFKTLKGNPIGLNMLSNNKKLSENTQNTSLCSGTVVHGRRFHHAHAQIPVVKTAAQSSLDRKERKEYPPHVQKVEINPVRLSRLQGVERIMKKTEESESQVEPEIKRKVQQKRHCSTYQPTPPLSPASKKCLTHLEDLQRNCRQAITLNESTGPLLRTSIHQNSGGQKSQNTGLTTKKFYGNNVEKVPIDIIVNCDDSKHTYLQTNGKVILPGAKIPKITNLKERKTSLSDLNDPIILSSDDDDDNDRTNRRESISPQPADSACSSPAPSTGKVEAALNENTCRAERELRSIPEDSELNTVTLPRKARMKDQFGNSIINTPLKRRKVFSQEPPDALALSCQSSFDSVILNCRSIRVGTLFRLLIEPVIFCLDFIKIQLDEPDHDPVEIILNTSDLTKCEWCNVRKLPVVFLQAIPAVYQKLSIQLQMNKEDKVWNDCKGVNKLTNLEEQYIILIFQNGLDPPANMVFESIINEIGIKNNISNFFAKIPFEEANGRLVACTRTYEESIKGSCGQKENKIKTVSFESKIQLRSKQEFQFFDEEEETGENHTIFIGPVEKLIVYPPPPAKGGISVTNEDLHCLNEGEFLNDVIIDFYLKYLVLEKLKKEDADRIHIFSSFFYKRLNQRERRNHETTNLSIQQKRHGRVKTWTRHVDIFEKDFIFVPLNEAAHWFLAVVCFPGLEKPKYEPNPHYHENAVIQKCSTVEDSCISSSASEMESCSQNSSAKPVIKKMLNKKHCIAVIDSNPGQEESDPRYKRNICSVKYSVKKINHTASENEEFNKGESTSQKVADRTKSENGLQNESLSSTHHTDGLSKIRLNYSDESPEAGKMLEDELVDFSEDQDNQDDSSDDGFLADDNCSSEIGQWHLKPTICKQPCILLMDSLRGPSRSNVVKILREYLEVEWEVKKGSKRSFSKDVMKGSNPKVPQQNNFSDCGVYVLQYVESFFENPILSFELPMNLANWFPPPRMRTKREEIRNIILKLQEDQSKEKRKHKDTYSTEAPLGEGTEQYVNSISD

[5] = target: T4, Sentrin-specific protease 8 (Homo sapiens, UniProt Q96LD8); assay type: functional;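 further: luminescence read-out of SENP8 inhibition, dose-response confirmation following an ultra-high-throughput screen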
T4 sequence (Q96LD8 whole entry): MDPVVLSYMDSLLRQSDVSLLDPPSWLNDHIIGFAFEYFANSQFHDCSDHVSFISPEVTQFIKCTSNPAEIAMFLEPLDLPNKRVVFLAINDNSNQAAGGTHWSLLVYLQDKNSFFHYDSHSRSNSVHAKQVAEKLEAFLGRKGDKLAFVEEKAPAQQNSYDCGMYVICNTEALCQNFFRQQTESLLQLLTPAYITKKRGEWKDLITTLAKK

INS1 = assay: INS-1E survival protection against cytokine death – cell-based, luminescence, retest, dose response (AID 449756); assay type: functional; settings: Rattus norvegicus;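 further: cell death triggered by IL-1 beta plus TNF-alpha plus IFN-gamma mixture; protective hits raise ATP signal compared with cytokine alone wells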
Fatty acid synthase [6] = target: T5, Fatty acid synthase (Homo sapiens, UniProt P49327); assay: inhibition of human FAS-TE enzyme activity – biochemical, endpoint fluorescence intensity, uHTS hits, dose response (AID 624327); assay type: functional;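 further: fluorescence from hydrolysis of an O-methyl fluorescein acyl ester substrate by the enzyme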
Fatty acid synthase [7] = target: T5, Fatty acid synthase; assay: inhibition of human FAS-TE enzyme activity – biochemical, kinetic fluorescence intensity, dose response (AID 624326); assay type: functional;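 further: rate of fluorescence rise from hydrolysis of a fluorogenic O-methyl fluorescein ester substrate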
HEK293 [8] = assay: inhibition of NOD1-driven NF-kB reporter – cell-based, luminescence, uHTS, primary screen (AID 1578); assay type: functional; settings: Homo sapiens
HEK293 [9] = assay: Fluorescence-based counterscreen for potentiators or agonists of NPY-Y2: cell-based high-throughput dose response assay to identify inhibitors of cyclic nucleotide gated ion channel (CNGC) activity. In this assay, the parental HEK293 cell line transfected with a cyclic-nucleotide gated ion channel (CNGC)-based cAMP sensor is used to measure inhibition of isoproterenol-induced CNGC activity by test compound.; assay type: functional; settings: Homo sapiens
HEK293 [10] = assay: cells; assay type: functional, cell-based; settings: Homo sapiens
[11] = target: T6, Neuropeptide Y receptor type 2 (Homo sapiens, UniProt P49146); assay: Fluorescence-based cell-based high-throughput dose response assay for agonists of NPY-Y2. [Related pubchem assays: 1703 (Screening assay (CNGC inhibitors).), 1359 (Screening assay (NPY-Y2 potentiators or agonists).), 1304 (Screening assay (NPY-Y1 potentiators or agonists).), 1710 (Screening assay (NPY-Y2 agonists).), 1791 (Summary AID.)]; assay type: functional
T6 sequence (P49146 whole entry): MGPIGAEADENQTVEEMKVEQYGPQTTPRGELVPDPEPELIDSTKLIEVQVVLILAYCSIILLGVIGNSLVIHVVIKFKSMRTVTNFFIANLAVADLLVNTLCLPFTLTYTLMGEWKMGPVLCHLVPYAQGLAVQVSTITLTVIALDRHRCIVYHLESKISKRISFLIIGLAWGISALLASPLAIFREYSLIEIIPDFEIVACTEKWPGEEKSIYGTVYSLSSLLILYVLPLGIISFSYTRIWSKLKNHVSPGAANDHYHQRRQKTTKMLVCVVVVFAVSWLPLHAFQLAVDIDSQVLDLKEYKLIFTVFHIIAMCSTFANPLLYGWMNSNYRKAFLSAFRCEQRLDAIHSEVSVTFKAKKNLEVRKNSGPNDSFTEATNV

HEK293 [12] = assay: cells; assay type: functional, cell-based; settings: Homo sapiens; remark: listed apart in the source
[13] = target: Nucleotide-binding oligomerization domain-containing protein 2 (Homo sapiens, UniProt Q9HC29); assay: inhibition of NOD2-driven NF-kB reporter – cell-based, luminescence, uHTS, HEK293 (AID 1566); assay type: functional
HEK293 [14] = assay: NOD2 signaling inhibitors in MDP-stimulated cells, cell-based, uHTS, luminescence (AID 2001); assay type: functional; settings: Homo sapiens
HEK293 [15] = assay: cells; assay type: functional, cell-based; settings: Homo sapiens; remark: listed apart in the source
[16] = target: T7, Neuropeptide Y receptor type 1 (Homo sapiens, UniProt P25929); assay: Fluorescence-based counterscreen for agonists of NPY-Y2: cell-based high-throughput dose response assay for agonists of NPY-Y1.; assay type: functional
T7 sequence (P25929 whole entry): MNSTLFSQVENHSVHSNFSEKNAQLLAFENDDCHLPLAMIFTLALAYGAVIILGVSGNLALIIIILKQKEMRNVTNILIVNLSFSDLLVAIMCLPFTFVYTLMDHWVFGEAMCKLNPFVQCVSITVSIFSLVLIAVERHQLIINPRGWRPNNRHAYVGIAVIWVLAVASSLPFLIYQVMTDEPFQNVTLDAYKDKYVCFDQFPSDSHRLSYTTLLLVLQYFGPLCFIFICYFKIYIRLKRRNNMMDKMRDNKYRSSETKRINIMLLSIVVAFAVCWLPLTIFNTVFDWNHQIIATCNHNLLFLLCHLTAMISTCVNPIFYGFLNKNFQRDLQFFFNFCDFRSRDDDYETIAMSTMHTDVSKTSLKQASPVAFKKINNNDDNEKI

[17] = THP-1 cell cytotoxicity, dose response, cytotoxicity control for non-replicating M. tuberculosis project (AID 489025); assay type: functional
[18] = HepG2 cell cytotoxicity, dose response, cytotoxicity control for non-replicating M. tuberculosis project (AID 489018); assay type: functional; settings: Mycobacterium tuberculosis
[19] = target: T8, Microphthalmia-associated transcription factor (Homo sapiens, UniProt O75030); assay: reducers of TRPM1 reporter luminescence, concentration series – cell-based, SK-MEL-5, cherry-picked, set 3, MITF inhibitor project, dose response (AID 493073); assay type: functional;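 further: SK-MEL-5 melanoma cells with luciferase driven by the MITF target TRPM1 promoter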
T8 sequence (O75030 whole entry): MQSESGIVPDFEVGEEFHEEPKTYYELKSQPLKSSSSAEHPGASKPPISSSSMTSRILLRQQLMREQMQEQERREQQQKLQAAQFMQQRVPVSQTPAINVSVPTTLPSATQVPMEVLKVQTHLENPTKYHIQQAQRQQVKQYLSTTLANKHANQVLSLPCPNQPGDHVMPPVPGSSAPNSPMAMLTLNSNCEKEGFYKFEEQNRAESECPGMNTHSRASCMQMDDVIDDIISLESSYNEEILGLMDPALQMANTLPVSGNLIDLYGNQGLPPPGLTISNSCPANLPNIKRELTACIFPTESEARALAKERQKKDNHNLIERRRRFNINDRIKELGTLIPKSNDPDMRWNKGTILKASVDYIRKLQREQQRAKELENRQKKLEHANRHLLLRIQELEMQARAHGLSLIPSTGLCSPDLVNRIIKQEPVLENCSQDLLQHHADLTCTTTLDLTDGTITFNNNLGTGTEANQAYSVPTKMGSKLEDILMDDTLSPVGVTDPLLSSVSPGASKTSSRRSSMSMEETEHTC

cells = assay type: functional
Vero = assay: cells; assay type: functional; settings: Chlorocebus sabaeus
Jurkat = assay: blockers of NF-kB activation in T cells – Jurkat, luciferase reporter, luminescence, B- and T-cell, dose response (AID 489004); assay type: functional, cell-based; settings: Homo sapiens;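 further: NF-kB luciferase reporter Jurkat cells stimulated with PMA plus ionomycin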
[20] = HEK-293T viability loss, compound-treated – cell-based, uHTS hits, cytotoxicity control for B/T-cell NF-kB inhibitor project, dose response (AID 489019); assay type: functional;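 further: IC50 reflects cytotoxicity as loss of cell viability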
A-375 = assay: MITF: Counter assay: A375 proliferation Measured in Cell-Based System Using Plate Reader - 2084-03_Inhibitor_Dose_DryPowder_Activity. [Related pubchem assays (depositor defined):AID488944]; assay type: functional; settings: Homo sapiens
[21] = reduced cellular PGC1a acetyl-lysine signal – cell-based, cherry-picked samples, dose response (AID 720514); assay type: functional;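 further: potency may reflect raised or lowered acetylation signal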

T5 sequence (P49327 whole entry): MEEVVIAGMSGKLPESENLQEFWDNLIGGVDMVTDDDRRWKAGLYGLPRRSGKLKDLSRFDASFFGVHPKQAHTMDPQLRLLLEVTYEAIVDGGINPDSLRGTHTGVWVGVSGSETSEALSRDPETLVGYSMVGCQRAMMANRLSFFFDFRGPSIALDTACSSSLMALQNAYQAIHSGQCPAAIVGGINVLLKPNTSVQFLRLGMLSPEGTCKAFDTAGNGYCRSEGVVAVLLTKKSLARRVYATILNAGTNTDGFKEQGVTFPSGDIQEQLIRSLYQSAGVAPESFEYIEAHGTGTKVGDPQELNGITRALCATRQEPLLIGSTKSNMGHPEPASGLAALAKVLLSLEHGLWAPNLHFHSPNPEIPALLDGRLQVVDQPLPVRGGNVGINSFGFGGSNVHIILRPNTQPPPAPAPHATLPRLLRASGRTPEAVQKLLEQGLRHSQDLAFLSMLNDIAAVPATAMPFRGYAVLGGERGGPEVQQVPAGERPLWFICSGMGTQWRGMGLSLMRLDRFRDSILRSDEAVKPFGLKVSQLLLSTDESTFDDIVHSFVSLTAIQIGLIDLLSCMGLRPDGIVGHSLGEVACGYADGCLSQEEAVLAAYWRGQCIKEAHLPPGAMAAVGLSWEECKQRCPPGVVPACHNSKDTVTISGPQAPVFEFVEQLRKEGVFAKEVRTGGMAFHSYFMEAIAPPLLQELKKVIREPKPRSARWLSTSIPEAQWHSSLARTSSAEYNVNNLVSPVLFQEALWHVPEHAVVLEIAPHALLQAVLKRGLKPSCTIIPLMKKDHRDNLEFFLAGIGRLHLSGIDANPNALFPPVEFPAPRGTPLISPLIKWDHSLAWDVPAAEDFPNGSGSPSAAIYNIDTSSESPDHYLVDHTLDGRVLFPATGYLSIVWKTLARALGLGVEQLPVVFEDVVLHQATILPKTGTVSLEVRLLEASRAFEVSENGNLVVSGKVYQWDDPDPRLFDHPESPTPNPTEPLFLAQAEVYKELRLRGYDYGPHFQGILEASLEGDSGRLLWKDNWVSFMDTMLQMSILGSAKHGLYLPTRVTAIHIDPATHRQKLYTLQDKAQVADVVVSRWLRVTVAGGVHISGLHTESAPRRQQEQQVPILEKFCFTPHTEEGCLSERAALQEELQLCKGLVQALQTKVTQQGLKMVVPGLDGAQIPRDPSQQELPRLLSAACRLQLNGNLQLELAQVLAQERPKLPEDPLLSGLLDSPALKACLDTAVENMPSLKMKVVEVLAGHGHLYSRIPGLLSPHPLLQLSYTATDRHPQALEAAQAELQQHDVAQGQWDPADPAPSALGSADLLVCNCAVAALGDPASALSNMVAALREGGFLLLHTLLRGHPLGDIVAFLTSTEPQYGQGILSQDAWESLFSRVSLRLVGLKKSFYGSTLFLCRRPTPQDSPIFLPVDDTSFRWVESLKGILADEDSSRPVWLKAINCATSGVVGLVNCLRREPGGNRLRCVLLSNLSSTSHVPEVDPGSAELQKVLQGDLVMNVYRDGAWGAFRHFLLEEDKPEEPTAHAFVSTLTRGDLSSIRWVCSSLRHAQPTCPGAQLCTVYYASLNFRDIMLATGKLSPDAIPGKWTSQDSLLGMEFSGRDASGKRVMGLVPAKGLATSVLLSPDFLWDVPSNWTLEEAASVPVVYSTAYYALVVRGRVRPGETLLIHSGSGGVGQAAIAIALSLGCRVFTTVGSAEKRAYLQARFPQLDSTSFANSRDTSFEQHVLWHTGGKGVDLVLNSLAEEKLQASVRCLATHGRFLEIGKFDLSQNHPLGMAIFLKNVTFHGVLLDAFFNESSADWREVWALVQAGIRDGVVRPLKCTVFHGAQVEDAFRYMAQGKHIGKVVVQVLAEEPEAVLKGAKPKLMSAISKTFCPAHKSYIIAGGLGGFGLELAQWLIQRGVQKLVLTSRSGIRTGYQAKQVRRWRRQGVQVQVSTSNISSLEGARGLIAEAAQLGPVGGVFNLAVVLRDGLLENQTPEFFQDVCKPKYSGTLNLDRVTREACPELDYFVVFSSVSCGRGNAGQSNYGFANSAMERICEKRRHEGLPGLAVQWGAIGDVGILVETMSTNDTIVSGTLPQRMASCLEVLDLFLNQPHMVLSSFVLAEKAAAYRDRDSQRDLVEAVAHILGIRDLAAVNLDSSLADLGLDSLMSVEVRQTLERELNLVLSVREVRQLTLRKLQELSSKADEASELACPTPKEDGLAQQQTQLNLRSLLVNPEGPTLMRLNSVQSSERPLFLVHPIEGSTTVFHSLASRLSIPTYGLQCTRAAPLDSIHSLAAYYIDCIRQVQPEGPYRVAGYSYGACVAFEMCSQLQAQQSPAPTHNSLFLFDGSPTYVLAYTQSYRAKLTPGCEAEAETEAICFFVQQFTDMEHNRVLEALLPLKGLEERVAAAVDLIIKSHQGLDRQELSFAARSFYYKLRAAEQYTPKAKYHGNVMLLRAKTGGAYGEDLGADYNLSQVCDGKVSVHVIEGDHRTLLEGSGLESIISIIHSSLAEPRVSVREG
Chain of Nucleotide-binding oligomerization domain-containing protein 2 (Q9HC29 whole entry, the tested form may be a part): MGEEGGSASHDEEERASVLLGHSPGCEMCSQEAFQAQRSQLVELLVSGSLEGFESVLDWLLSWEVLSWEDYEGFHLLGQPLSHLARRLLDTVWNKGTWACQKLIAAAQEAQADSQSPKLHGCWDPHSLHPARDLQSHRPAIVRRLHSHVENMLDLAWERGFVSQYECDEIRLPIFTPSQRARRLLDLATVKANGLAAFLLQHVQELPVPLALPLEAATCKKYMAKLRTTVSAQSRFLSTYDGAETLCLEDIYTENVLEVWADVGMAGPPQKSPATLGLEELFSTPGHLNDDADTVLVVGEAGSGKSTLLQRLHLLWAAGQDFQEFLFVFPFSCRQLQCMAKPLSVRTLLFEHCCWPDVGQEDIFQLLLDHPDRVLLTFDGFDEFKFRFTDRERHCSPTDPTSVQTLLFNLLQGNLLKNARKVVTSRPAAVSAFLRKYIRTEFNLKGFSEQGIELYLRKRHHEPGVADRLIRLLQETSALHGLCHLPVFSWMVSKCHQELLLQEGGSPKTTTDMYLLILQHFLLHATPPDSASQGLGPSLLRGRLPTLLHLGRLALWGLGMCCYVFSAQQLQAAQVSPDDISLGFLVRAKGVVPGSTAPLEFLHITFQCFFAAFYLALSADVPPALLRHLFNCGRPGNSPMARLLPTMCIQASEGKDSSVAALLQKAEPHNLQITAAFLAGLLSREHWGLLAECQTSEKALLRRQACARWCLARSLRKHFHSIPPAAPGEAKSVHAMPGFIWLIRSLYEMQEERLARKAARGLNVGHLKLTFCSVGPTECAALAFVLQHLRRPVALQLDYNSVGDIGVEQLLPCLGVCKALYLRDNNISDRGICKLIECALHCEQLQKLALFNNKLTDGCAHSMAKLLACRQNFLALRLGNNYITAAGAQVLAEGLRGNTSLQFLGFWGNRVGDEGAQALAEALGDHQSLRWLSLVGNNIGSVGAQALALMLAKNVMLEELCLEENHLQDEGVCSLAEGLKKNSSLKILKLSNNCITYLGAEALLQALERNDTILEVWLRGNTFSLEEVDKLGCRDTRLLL

SMILES: O=C(Nc1ccc(OC(F)(F)F)cc1)Nc1cccc([N+](=O)[O-])c1
- IC50 [1]: 1.42 µM (active)
- IC50 [2]: 1.27 µM (active)
- IC50 (Caspase-3): 89.9 µM (active)
- IC50 [3]: 8.57 µM (active)
- IC50 [4]: > 100 µM (inactive)
- IC50 [5]: > 100 µM (inactive)
- AC50 (INS1): 2.8 µM (active)
- IC50 (Fatty acid synthase [6]): 6.74 µM (active)
- IC50 (Fatty acid synthase [7]): 6.14 µM (active)

SMILES: O=C(N/N=C/c1cccc2cccnc12)c1ccccc1O
- EC50 (HEK293 [8]): > 20 µM (inactive)
- EC50 (HEK293 [9]): > 35.4 µM (not active)
- IC50 (HEK293 [10]): 6.52 µM (active)
- EC50 [11]: > 35.4 µM (not active)
- IC50 (HEK293 [12]): > 20 µM (inactive)
- EC50 [13]: > 20 µM (inactive)
- IC50 (HEK293 [14]): 5.04 µM (inactive)
- IC50 (HEK293 [15]): > 20 µM (inactive)
- EC50 [16]: > 35.4 µM (not active)
- CC50 [17]: 11.7 µM (active)
- CC50 [18]: > 20 µM (active)
- AC50 [19]: 24.8 µM (active)
- IC50 (cells): 0.97 µM (active)
- CC50 (Vero): 18.8 µM (active)

SMILES: COc1ccc(/C=C2\SC(=O)N(CCCC(=O)Nc3cc(Cl)ccc3C(=O)O)C2=O)cc1
- IC50 (Jurkat): < 0.16 µM (active)
- IC50 [20]: > 80 µM (inactive)
- AC50 [19]: 0.528 µM (active)

SMILES: Cc1cccc(NC(=O)CNC(=O)Cn2ncc(Cl)c(Cl)c2=O)c1C
- AC50 [19]: 13.4 µM (active)
- AC50 (A-375): 20.5 µM (active)
- AC50 [21]: 6.82 µM (active)
